Literature values as cited in US20140080846A1, “Method of treating orphan respiratry diseases using doxofylline” (priority 2012, published 2014).

Key:
[1] = for subjects dropped out of the study due to side effects: large randomized clinical study, 12 week testing period, asthma patients
[2] = intravenous, CF patients

Cn1c(=O)c2c(ncn2CC2OCCO2)n(C)c1=O [doxofylline, 7-(1,3-dioxolan-2-ylmethyl)-1,3-dimethylpurine-2,6-dione]
efficacy in treating chronic asthma ([1]; compared to theophylline): as effective as theophylline | subjects dropped out of the study due to side effects [1]: 11%

Cn1c(=O)c2[nH]cnc2n(C)c1=O [theophylline]
patients treated in an emergency setting for overdose who die: Ten | effect on Forced Expiratory Volume at 1 second (FEV1) and Forced Expiratory Flow at 0.75 seconds (FEF 0.75) [2]: positive results | subjects dropped out of the study due to side effects [1]: 31%
